Tests used:
[1] = 24 hours
[2] = Storage at 40° C./75% RH (elevated humidity) for 1 week, re-analysis by XRPD/HPLC; settings: after 1 week, XRPD
Method: The crystalline solids were filtered, dried at ambient conditions, and stored at 40° C./75% RH for 1 week and analyzed by ^1H NMR/IC.
Samples from the screen using amorphous free base Compound 1 were analysed by ^1H-NMR and DSC, and re-analysis by XRPD was also carried out after drying at 50° C./vacuum and storage at 40° C./75% RH (the same sample was dried and stored at elevated humidity).

[3] = Gravimetric vapour sorption (GVS); type: physicochemical
Outline: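 Moisture sorption isotherm at 25° C, 0-90% RH in 10% RH steps, 2 scans giving one full cycle, starting from 40% RH. Each step equilibrated 1-4 h until mass within 5% of predicted asymptote; solid re-checked by XRPD afterwards.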

[4] = Storage at 25° C./93% RH for 1 week, re-analysis by XRPD/HPLC; type: physicochemical; settings: after 1 week, XRPD
[5] = Thermodynamic aqueous solubility; type: physicochemical; settings: at pH 6.47
[6] = Drying experiments: heating in an oven at 125° C. for two hours, XRPD; type: physicochemical
[7] = Cross species allometric scaling of CL and Vss to humans
Method: (§1) For example, Compound 1 bis-hydrogen sulfate monohydrate was evaluated in CD-1 mouse, Wistar rat, Cyno monkey, and Beagle dog. Cross species allometric scaling of CL (drug clearance) and Vss (volume at steady state) predicts low CL, high Vss and long T112 for Compound 1 in humans.

PI3K-α = PI3K-α (Homo sapiens, UniProt P42336); experiment: Kd determination, PI3K-α; type: binding
Chain of PI3K-α (P42336 whole entry): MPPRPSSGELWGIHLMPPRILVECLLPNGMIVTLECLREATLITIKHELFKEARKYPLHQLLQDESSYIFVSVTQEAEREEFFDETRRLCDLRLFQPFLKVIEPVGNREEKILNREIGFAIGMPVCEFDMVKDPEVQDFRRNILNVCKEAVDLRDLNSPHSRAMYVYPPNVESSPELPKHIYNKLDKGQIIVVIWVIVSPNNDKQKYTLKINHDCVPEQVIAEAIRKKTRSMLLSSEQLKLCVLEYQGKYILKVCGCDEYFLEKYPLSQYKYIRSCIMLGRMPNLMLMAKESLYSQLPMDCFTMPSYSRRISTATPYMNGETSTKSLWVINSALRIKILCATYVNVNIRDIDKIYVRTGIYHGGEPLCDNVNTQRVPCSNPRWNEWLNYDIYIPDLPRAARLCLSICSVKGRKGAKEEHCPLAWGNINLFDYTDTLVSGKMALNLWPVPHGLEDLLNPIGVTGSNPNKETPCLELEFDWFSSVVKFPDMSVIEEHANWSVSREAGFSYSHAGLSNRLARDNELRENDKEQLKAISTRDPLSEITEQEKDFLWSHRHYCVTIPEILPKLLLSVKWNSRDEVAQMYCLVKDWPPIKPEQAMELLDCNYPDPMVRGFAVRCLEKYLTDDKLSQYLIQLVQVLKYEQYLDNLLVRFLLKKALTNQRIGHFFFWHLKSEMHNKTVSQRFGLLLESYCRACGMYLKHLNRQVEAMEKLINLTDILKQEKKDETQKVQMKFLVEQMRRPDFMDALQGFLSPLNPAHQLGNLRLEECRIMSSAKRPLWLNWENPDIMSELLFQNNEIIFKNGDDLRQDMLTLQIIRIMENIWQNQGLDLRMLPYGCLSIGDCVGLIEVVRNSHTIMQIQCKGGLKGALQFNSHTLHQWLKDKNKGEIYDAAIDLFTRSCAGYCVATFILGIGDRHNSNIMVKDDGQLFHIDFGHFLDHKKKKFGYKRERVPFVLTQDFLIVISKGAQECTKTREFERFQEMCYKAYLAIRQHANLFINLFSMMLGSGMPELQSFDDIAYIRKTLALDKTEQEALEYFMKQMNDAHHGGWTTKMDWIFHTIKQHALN
Chain of PI3K-α (P27986 whole entry partner): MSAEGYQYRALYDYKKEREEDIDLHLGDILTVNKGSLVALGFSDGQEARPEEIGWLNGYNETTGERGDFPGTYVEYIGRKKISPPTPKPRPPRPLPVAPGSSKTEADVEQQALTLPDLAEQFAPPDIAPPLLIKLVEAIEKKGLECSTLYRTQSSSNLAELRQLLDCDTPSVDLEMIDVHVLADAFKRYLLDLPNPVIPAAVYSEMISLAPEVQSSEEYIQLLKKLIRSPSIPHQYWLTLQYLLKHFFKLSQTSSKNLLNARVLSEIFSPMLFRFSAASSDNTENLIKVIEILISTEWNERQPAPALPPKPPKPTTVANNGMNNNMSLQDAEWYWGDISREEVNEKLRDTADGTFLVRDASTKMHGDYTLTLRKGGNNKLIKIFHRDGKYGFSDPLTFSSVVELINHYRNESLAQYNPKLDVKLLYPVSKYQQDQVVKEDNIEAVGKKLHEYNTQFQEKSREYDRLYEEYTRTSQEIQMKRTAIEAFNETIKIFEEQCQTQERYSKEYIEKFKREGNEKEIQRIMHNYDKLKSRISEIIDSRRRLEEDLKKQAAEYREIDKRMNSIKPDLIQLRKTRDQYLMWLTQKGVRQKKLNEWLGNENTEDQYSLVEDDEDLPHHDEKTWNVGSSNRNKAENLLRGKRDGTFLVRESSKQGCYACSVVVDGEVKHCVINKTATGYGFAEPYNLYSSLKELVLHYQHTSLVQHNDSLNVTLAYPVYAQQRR

PI3K-δ = PI3K-δ (Homo sapiens, UniProt O00329); experiment: Kd determination, PI3K-δ; type: binding
Chain of PI3K-δ (O00329 whole entry): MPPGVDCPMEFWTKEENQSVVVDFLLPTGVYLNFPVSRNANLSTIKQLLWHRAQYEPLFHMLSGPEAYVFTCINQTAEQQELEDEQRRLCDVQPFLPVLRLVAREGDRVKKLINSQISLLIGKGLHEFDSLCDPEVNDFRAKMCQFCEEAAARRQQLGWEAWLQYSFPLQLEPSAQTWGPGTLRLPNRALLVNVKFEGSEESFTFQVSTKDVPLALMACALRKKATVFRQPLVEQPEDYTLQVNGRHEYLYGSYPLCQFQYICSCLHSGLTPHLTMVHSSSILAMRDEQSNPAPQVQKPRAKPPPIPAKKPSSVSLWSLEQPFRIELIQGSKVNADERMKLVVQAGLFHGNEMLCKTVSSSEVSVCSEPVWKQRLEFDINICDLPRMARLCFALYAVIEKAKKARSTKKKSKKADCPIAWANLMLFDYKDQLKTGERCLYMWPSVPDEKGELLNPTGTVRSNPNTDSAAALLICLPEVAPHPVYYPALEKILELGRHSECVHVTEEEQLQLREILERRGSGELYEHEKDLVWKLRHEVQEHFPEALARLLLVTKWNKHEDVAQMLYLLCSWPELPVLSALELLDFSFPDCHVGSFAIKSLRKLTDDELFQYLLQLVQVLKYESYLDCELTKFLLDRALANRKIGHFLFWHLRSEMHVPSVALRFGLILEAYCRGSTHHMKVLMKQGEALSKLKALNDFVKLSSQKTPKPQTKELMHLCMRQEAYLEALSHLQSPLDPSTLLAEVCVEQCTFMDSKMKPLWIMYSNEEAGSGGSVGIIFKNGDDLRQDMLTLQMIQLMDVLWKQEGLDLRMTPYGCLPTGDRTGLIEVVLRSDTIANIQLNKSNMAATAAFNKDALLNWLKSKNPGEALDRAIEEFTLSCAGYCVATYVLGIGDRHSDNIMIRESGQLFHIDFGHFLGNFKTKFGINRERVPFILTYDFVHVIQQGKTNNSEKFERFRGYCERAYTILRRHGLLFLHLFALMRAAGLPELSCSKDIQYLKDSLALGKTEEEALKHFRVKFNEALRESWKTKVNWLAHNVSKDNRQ
Chain of PI3K-δ (P27986 whole entry partner): as the sequence (P27986 whole entry partner) above

[8] = PK properties in non-clinical animal species (all species); type: in vivo, CD-1 mouse, Wistar rat, Cyno monkey, Beagle dog; settings: non-clinical animal species
Method: as §1

PI3K-β = PI3K-β (Homo sapiens, UniProt P42338); experiment: Kd determination, PI3K-β; type: binding
Chain of PI3K-β (P42338 whole entry): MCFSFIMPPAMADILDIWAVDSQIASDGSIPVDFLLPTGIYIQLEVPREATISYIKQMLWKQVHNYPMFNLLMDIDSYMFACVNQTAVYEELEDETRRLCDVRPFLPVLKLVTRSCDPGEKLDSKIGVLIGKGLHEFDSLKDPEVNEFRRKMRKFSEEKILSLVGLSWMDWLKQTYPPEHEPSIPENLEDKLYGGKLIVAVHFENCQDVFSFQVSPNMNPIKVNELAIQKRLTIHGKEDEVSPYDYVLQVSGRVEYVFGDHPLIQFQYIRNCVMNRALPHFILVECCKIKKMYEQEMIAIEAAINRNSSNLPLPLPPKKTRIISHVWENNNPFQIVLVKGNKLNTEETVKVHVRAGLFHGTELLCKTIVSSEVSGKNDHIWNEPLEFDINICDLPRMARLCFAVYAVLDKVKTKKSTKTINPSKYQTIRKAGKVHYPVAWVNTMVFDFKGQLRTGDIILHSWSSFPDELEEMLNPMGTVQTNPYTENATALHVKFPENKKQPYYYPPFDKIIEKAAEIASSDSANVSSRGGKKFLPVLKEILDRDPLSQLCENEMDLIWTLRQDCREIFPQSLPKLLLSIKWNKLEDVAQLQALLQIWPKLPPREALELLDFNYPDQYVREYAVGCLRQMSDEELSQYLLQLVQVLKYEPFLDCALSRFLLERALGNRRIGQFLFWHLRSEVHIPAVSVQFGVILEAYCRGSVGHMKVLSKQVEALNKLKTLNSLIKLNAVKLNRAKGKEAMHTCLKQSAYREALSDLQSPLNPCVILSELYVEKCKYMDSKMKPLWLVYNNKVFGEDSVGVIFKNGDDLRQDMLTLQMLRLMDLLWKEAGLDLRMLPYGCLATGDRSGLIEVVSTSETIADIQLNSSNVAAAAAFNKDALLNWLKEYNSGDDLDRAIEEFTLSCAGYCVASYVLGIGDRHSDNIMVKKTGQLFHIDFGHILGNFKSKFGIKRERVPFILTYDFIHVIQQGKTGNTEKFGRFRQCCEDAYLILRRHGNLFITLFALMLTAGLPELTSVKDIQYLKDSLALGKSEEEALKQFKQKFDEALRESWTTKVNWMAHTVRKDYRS
Chain of PI3K-β (P27986 whole entry partner): as the sequence (P27986 whole entry partner) above

[9] = pKa of the basic nitrogen atoms; type: physicochemical; settings: at least two basic nitrogen atoms
[10] = Free base solubility assessment in 15 solvents (free base Form 1); type: physicochemical
Method: Approximately 11 mg (0.022 mmol) portions of the free base Form 1 of Compound 1 (i.e., the compound of formula (I)) were weighed into 2 ml screw-topped HPLC vials. One of 15 solvents was added to each vial in a number of aliquots (up to 100 volumes), with shaking and if necessary with heating to 40° C., in an attempt to achieve dissolution.

PI3K-γ = PI3K-γ (Homo sapiens, UniProt P48736); experiment: Kd determination, PI3K-γ; type: binding
Chain of PI3K-γ (P48736 whole entry): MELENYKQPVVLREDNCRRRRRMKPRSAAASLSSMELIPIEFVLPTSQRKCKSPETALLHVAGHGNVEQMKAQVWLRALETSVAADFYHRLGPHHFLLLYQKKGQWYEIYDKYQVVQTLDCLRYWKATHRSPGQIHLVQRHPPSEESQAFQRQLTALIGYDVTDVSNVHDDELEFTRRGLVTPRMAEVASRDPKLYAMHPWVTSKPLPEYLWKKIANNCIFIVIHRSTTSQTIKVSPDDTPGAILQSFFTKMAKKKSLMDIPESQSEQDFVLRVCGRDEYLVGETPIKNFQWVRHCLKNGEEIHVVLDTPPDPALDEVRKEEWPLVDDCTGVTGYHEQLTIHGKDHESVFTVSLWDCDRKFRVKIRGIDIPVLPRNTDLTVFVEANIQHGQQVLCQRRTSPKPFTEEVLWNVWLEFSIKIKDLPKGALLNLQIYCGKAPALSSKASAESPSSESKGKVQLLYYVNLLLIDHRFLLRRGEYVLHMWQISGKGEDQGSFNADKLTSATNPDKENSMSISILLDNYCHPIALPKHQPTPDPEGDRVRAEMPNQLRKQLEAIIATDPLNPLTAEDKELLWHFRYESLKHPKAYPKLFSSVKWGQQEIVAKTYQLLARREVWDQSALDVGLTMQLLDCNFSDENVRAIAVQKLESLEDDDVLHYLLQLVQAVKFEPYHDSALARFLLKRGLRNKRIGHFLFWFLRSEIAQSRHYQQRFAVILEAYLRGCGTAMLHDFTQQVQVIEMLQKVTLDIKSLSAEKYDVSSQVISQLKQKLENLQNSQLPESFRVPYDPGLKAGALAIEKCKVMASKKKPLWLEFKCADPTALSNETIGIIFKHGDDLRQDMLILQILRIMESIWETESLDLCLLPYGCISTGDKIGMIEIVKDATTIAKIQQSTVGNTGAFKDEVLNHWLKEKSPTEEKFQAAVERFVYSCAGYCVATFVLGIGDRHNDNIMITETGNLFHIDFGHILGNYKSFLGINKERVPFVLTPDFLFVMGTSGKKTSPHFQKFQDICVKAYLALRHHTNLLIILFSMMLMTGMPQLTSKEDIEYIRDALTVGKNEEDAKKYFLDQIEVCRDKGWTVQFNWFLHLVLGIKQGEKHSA

SMILES: COc1cc(-c2cccc3cc([C@H](C)Nc4nc(N)ncc4C#N)n(-c4ccccc4)c(=O)c23)ccn1
- crystallinity after standing at RT [1]: decreases

SMILES: COc1cc(-c2cccc3cc([C@H](C)Nc4nc(N)ncc4C#N)n(-c4ccccc4)c(=O)c23)ccn1.O [Compound 1 Free Base Form 2]
- Stability at 40° C./75% RH [2]: Very slight changes after 1 week
- GVS: immediate moisture uptake, up to ([3]; 40-50% RH, stable on sorption up to 90% RH and desorption down to 10% RH): uptake (40-50% RH up to 5.7% w/w) which remains
- GVS: moisture on loading ([3]; loaded at 40% RH, 25° C.): 4.7% w/w moisture on loading. Immediate moisture
- GVS: XRPD after the experiment ([3]; re-analysis by XRPD after GVS): 40% RH. Slight changes by XRPD after the experiment.
- Stability at 25° C./93% RH [4]: Very slight changes after 1 week
- Thermodynamic aqueous solubility [5]: 0.005 mg/mL, at pH 6.47
- Drying experiments: changes by XRPD [6]: very slight changes by XRPD

SMILES: COc1cc(-c2cccc3cc([C@H](C)Nc4nc(N)ncc4C#N)n(-c4ccccc4)c(=O)c23)ccn1 [Compound 1, (S)-2-amino-4-((1-(8-(2-methoxypyridin-4-yl)-1-oxo-2-phenyl-1,2-dihydroisoquinolin-3-yl)ethyl)amino)pyrimidine-5-carbonitrile]
- CL (drug clearance) predicted in humans ([7]; allometric scaling): low
- T112 predicted in humans ([7]; allometric scaling): long
- Vss (volume at steady state) predicted in humans ([7]; allometric scaling): high
- Forai in humans ([7]; suggested by oral bioavailability in animals): good
- koff (PI3K-α): 0.053 s⁻¹
- kon (PI3K-α): 5.43e+06 M⁻¹ s⁻¹
- Kd (PI3K-α; read-out: KD = koff/kon): 9.76 nM
- koff (PI3K-δ): 0.000252 s⁻¹
- kon (PI3K-δ): 8.23e+06 M⁻¹ s⁻¹
- Kd (PI3K-δ; read-out: KD = koff/kon): 0.0306 nM
- oral bioavailability [8]: Good oral bioavailability
- koff (PI3K-β): 0.0126 s⁻¹
- kon (PI3K-β): 2.03e+06 M⁻¹ s⁻¹
- Kd (PI3K-β; read-out: KD = koff/kon): 6.24 nM
- pKa [9]: ~3.5
- volumes of solvent in which Compound 1 dissolved ([10]; 2-MeTHF): 50 vol.
- volumes of solvent in which Compound 1 dissolved ([10]; DMSO): 5 vol.
- volumes of solvent in which Compound 1 did not dissolve ([10]; EtOAC): > 100 vol.
- volumes of solvent in which Compound 1 did not dissolve ([10]; EtOH): > 100 vol.
- volumes of solvent in which Compound 1 did not dissolve ([10]; EtOH/H2O): > 100 vol.
- volumes of solvent in which Compound 1 did not dissolve ([10]; H2O): > 100 vol.
- volumes of solvent in which Compound 1 dissolved ([10]; MIBK): 40 vol.
- volumes of solvent in which Compound 1 dissolved ([10]; MeOH, shaking, if necessary heating to 40° C.): 75 vol.
- volumes of solvent in which Compound 1 dissolved ([10]; MeOH/anisole (50/50 v/v)): 10 vol.
- volumes of solvent in which Compound 1 did not dissolve ([10]; TBME): > 100 vol.
- volumes of solvent in which Compound 1 dissolved ([10]; THF): 40 vol.
- volumes of solvent in which Compound 1 did not dissolve ([10]; acetone): > 100 vol.
- volumes of solvent in which Compound 1 did not dissolve ([10]; acetonitrile): > 100 vol.
- volumes of solvent in which Compound 1 did not dissolve ([10]; anisole): > 100 vol.
- volumes of solvent in which Compound 1 dissolved ([10]; chloroform): 40 vol.
- koff (PI3K-γ): 0.000188 s⁻¹
- kon (PI3K-γ): 1.65e+06 M⁻¹ s⁻¹
- Kd (PI3K-γ; read-out: KD = koff/kon): 0.114 nM

Reference: patent US20160024051A1, “SALTS AND SOLID FORMS OF ISOQUINOLINONES AND COMPOSITION COMPRISING AND METHODS OF USING THE SAME” (INFINITY PHARMACEUTICALS, INC., priority 2013, published 2016)
